The values that follow come from patent US9241927B2, “Pharmaceutical compositions comprising sigma receptor ligands” (Laboratories Del Dr, Esteve, S.A., priority 2009, dated 2016).

One series in a line: pKa of API-001. It is filed as physicochemical. From the text:
(§1) API-001 has a pKa 6.8, being a weakly basic drug and having a solubility strongly influenced by pH of the medium.

Series [1] can be described thus: pH solubility profile of API-001. The class given is physicochemical.
Text: as §1
Therefore, it is expected that the extrusion-spheronization pellets of the invention to be absorbed over all the intestinal tract.

For orientation: pKa means the negative logarithm of the acid dissociation constant. Low readings indicate a group that gives up its proton readily, high ones a group that holds its proton tightly. Broadly, the solubility is how much of the substance goes into solution per volume. Read a high solubility as much dissolved substance. Molecule `Cc1cc(OCCN2CCOCC2)nn1-c1ccc2ccccc2c1.Cl` [API-001, 4-{2-[5-Methyl-1-(naphthalen-2-yl)-1H-pyrazol-3-yloxy]ethyl}morpholine hydrochloride] came in with a pKa in “pKa of API-001” of 6.8. For the same molecule, in series [1] (FIG. 2), the pH solubility profile entry is “solubility of API-001 is decreasing when is increasing the pH of the medium”. In series [1] (pH 6.8, aqueous buffer), this molecule displayed a solubility of 600 µg/mL.
